Experimental data: patent US5753715A, “2-disubstituted cyclohexenyl and cyclohexyl antimicrobial agents” (Ortho Pharmaceutical Corporation, priority 1995, dated 1998)
Values after ≈ are worked out from the molar mass of the structure shown.

How the values were obtained:
[1] = tested on: S. aureus ATCC 29213; test: MIC, microdilution broth method (NCCLS); type: cell-based; conditions: cation supplemented Mueller Hinton broth, 35° C., 16-20 hours; unit assumed
Description: (§1) The in vitro antimicrobial spectrum of the compounds of the present invention were determined by the microdilution broth method following the test method from the National Committee for […] (NCCLS ). The method is described in the NCCLS Document M7-A2, Vol. 10, No.8 "Methods for Dilution Antimicrobial Susceptibility Test for Bacteria that Grow Aerobically--Second Edition".
(§2) In this method two fold serial dilutions of drug in cation supplemented Mueller Hinton broth are added to wells in microdilution trays. The test organisms are prepared by adjusting the turbidity of actively growing broth cultures so that the final concentration of test organism after it is added to the wells is approximately 5×10^4 colony forming units per well delivered by the Steers replicating device.
(§3) Following inoculation of the microdilution trays, the trays are incubated at 35° C. for 16-20 hours and then read. […] The amount of growth in the wells containing the test compound is compared with the amount of growth in the growth-control wells used in each tray.

[2] = tested on: C. albicans 10231; test: MIC, microdilution broth method (NCCLS); type: cell-based; conditions: cation supplemented Mueller Hinton broth, 35° C., 16-20 hours; unit assumed
Description: as §1, §2, §3

[3] = tested on: E. coli oc2605; test: MIC, microdilution broth method (NCCLS); type: cell-based; conditions: cation supplemented Mueller Hinton broth, 35° C., 16-20 hours; unit assumed
Description: as §1, §2, §3

[4] = tested on: K. pneum. oc1943; test: MIC, microdilution broth method (NCCLS); type: cell-based; conditions: cation supplemented Mueller Hinton broth, 35° C., 16-20 hours; unit assumed
Description: as §1, §2, §3

[5] = tested on: MRSA oc667; test: MIC, microdilution broth method (NCCLS); type: cell-based; conditions: cation supplemented Mueller Hinton broth, 35° C., 16-20 hours; unit assumed
Description: as §1, §2, §3

[6] = tested on: E. faecium oc2993; test: MIC, microdilution broth method (NCCLS); type: cell-based; conditions: cation supplemented Mueller Hinton broth, 35° C., 16-20 hours; unit assumed
Description: as §1, §2, §3

[7] = tested on: E. coli oc2530; test: MIC, microdilution broth method (NCCLS); type: cell-based; conditions: cation supplemented Mueller Hinton broth, 35° C., 16-20 hours; unit assumed
Description: as §1, §2, §3

[8] = tested on: E. faecalis oc3041; test: MIC, microdilution broth method (NCCLS); type: cell-based; conditions: cation supplemented Mueller Hinton broth, 35° C., 16-20 hours; unit assumed
Description: as §1, §2, §3

[9] = tested on: A. niger 10578; test: MIC, microdilution broth method (NCCLS); type: cell-based; conditions: cation supplemented Mueller Hinton broth, 35° C., 16-20 hours; unit assumed
Description: as §1, §2, §3

[10] = tested on: MRSA oc2089; test: MIC, microdilution broth method (NCCLS); type: cell-based; conditions: cation supplemented Mueller Hinton broth, 35° C., 16-20 hours; unit assumed
Description: as §1, §2, §3

[11] = tested on: Ps. aerug. oc27853; test: MIC, microdilution broth method (NCCLS); type: cell-based; conditions: cation supplemented Mueller Hinton broth, 35° C., 16-20 hours; unit assumed
Description: as §1, §2, §3

[12] = tested on: E. faecalis ACTCC 29212; test: MIC, microdilution broth method (NCCLS); type: cell-based; conditions: cation supplemented Mueller Hinton broth, 35° C., 16-20 hours; unit assumed
Description: as §1, §2, §3

[13] = tested on: Ps. aerug. oc161; test: MIC, microdilution broth method (NCCLS); type: cell-based; conditions: cation supplemented Mueller Hinton broth, 35° C., 16-20 hours; unit assumed
Description: as §1, §2, §3

[14] = tested on: C. tropicalis; test: MIC, microdilution broth method (NCCLS); type: cell-based; conditions: cation supplemented Mueller Hinton broth, 35° C., 16-20 hours; unit assumed
Description: as §1, §2, §3

[15] = tested on: S. epi oc2603; test: MIC, microdilution broth method (NCCLS); type: cell-based; parameters: unit not given here; conditions: cation supplemented Mueller Hinton broth, 35° C., 16-20 hours
Description: as §1, §2, §3

[16] = biological target: T1, Kinase A and SpoOF (Bacillus subtilis, UniProt P16497); test: Autophosphorylation of Kinase A and Transphosphorylation of SPoOF Assay; type: biochemical; conditions: inhibition of Kinase A autophosphorylation / SpoOF transphosphorylation, [32P]ATP, gel, phosphoimager
T1 sequence (P16497 1-606): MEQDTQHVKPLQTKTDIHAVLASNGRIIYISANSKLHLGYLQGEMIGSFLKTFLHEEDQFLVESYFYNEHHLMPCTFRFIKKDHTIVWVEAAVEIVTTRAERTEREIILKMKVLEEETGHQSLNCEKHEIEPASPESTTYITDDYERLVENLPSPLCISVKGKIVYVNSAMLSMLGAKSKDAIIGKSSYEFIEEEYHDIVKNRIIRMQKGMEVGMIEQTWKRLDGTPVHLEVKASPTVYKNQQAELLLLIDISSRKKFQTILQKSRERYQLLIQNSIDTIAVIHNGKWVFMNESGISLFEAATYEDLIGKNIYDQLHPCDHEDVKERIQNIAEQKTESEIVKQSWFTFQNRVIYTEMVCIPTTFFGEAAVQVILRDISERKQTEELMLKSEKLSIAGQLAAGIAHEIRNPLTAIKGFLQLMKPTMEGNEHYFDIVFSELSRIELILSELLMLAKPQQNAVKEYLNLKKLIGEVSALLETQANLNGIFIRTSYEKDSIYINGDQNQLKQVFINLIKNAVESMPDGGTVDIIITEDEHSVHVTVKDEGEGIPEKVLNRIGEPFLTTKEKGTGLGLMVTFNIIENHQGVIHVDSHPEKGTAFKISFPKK

Row | SMILES | MIC S. aureus ATCC 29213 [1] [µg/mL] | MIC C. albicans 10231 [2] [µg/mL] | MIC E. coli oc2605 [3] [µg/mL] | MIC K. pneum. oc1943 [4] [µg/mL] | MIC MRSA oc667 [5] [µg/mL] | MIC E. faecium oc2993 [6] [µg/mL] | MIC E. coli oc2530 [7] [µg/mL] | MIC E. faecalis oc3041 [8] [µg/mL] | MIC A. niger 10578 [9] [µg/mL] | MIC MRSA oc2089 [10] [µg/mL] | MIC Ps. aerug. oc27853 [11] [µg/mL] | MIC E. faecalis ACTCC 29212 [12] [µg/mL] | MIC Ps. aerug. oc161 [13] [µg/mL] | MIC C. tropicalis [14] [µg/mL] | MIC S. epi oc2603 [15] | IC50 [16] [mM] | IC min [16] [mM]
1 | COc1ccc(CC2(CCOc3ccc(CCCNC(=N)N)cc3)C=CCCC2)cc1 (stereo not drawn) [Compound 53] | 4 (≈ 9.49 µM) | 4 (≈ 9.49 µM) | > 64 | > 128 | 8 (≈ 19 µM) | 8 (≈ 19 µM) | 16 (≈ 38 µM) | 8 (≈ 19 µM) | 8 (≈ 19 µM) | 4 (≈ 9.49 µM) | > 128 | 4 (≈ 9.49 µM) | > 128 | 2 (≈ 4.74 µM) | 8 | 113 | 
2 | COc1ccc(CC2(CCOc3ccc(CCN)cc3)C=CCCC2)cc1 (stereo not drawn) [Compound 41] | 8 (≈ 21.9 µM) | 8 (≈ 21.9 µM) | > 64 | > 128 | 8 (≈ 21.9 µM) | 8 (≈ 21.9 µM) | 4 (≈ 10.9 µM) | 8 (≈ 21.9 µM) | 2 (≈ 5.47 µM) | 8 (≈ 21.9 µM) | > 128 | 8 (≈ 21.9 µM) | > 128 | 4 (≈ 10.9 µM) | 8 | 82.5 | 31.25
3 | CNCCCc1ccc(OCCC2(c3ccc(F)cc3)C=CCCC2)cc1 (stereo not drawn) [Compound 24] | 8 (≈ 21.8 µM) | 8 (≈ 21.8 µM) | > 64 | > 128 | 8 (≈ 21.8 µM) | 8 (≈ 21.8 µM) | 8 (≈ 21.8 µM) | 8 (≈ 21.8 µM) | 4 (≈ 10.9 µM) | 8 (≈ 21.8 µM) | > 128 | 8 (≈ 21.8 µM) | > 128 | 8 (≈ 21.8 µM) | 8 | 185 | 125
4 | Clc1ccc(CC2(CCOc3ccc(CCNCCN4CCCC4)cc3)C=CCCC2)cc1 (stereo not drawn) [Compound 34] | 4 (≈ 8.56 µM) | 8 (≈ 17.1 µM) | 8 (≈ 17.1 µM) | 32 (≈ 68.5 µM) | 4 (≈ 8.56 µM) | 4 (≈ 8.56 µM) | 4 (≈ 8.56 µM) | 4 (≈ 8.56 µM) | 8 (≈ 17.1 µM) | 4 (≈ 8.56 µM) | > 64 | 4 (≈ 8.56 µM) | > 64 | ≤ 4 | 4 | 295 | 125
5 | NCCc1ccc(OCCC2(Cc3cc(Cl)cc(Cl)c3)C=CCCC2)cc1 (stereo not drawn) [Compound 59] | 8 (≈ 19.8 µM) | 8 (≈ 19.8 µM) | ≥ 64 | > 128 | 8 (≈ 19.8 µM) | 8 (≈ 19.8 µM) | 16 (≈ 39.6 µM) | 8 (≈ 19.8 µM) | 44 (≈ 109 µM) | 8 (≈ 19.8 µM) | > 128 | 8 (≈ 19.8 µM) | > 128 | 8 (≈ 19.8 µM) | 8 | 46.1 | 
6 | NCCc1ccc(OCCC2(Cc3ccccc3)C=CCCC2)cc1 (stereo not drawn) [Compound 17] | 8 (≈ 23.8 µM) | ≤ 16 | 64 (≈ 191 µM) | > 64 | 8 (≈ 23.8 µM) | 8 (≈ 23.8 µM) | 8 (≈ 23.8 µM) | 8 (≈ 23.8 µM) | 4 (≈ 11.9 µM) | 8 (≈ 23.8 µM) | > 64 | 8 (≈ 23.8 µM) | > 64 | 4 (≈ 11.9 µM) | 8 | 38.3 | 15.6
7 | C1=CC(CCOc2ccc(CCCNCCN3CCCC3)cc2)(Cc2ccccc2)CCC1 (stereo not drawn) [Compound 3] | 8 (≈ 17.9 µM) | > 64 | 16 (≈ 35.8 µM) | 32 (≈ 71.6 µM) | 8 (≈ 17.9 µM) | 8 (≈ 17.9 µM) | 8 (≈ 17.9 µM) | 8 (≈ 17.9 µM) | 4 (≈ 8.95 µM) | 8 (≈ 17.9 µM) | > 64 | 8 (≈ 17.9 µM) | > 64 | 8 (≈ 17.9 µM) | 8 | 159 | 31.25
